Laboratory results: ChEMBL document CHEMBL1133610, “GRID/CPCA: a new computational tool to design selective ligands” (J Med Chem, 2000)

Tests used:
Coagulation factor X [1] = target: T1, Coagulation factor X (Homo sapiens, UniProt P00742); test: Inhibitory activity against human Coagulation factor Xa
Prothrombin = Prothrombin (Homo sapiens, UniProt P00734); test: Inhibitory activity against human thrombin
Coagulation factor X [2] = target: T1, Coagulation factor X; test: Inhibitory Activity against Coagulation factor X
Serine protease 1 = Serine protease 1 (Homo sapiens, UniProt P07477); test: Inhibitory Activity against Trypsin
Chain of Serine protease 1 (P07477 whole entry): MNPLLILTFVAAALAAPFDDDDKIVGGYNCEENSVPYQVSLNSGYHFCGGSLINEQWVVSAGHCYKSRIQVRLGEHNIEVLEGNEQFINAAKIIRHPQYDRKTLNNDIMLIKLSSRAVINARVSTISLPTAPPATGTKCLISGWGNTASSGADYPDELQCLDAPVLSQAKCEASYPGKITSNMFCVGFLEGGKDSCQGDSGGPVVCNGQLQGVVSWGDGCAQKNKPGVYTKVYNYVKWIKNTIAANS

T1 sequence (P00742 41-179 limits assumed): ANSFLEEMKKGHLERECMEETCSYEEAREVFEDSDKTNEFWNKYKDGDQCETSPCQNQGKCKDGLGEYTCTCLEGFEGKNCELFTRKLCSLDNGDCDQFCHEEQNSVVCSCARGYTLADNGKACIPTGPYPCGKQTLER
T1 sequence (P00742 235-488 limits assumed): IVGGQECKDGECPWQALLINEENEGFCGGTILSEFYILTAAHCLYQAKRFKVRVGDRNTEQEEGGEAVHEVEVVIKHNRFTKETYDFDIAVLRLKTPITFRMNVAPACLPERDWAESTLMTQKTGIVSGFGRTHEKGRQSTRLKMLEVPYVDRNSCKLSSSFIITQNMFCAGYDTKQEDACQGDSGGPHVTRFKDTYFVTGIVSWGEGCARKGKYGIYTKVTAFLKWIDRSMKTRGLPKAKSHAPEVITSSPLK

| IC50 (Coagulation factor X [1]) [µM] | IC50 (Prothrombin) [µM] | Ki (Coagulation factor X [2]) [µM] | Ki (Serine protease 1) [µM] | Compound |
| --- | --- | --- | --- | --- |
| 0.00272 | > 100 | – | – | N=C(N)c1cccc(-c2cccc([C@H](CCCNc3ccncc3)C(=O)O)c2)c1 |
| – | – | 210 | 5 | CC1CNc2c(cccc2S(=O)(=O)N[C@@H](CCCN=C(N)N)C(=O)N2CC[C@@H](C)CC2C(=O)O)C1 (some centres undefined) |
